Data reported in US11110070B2 (priority 2015, dated 2021).
Entries after “also recorded” stand apart in the source; their conditions may differ.

Tests used:
[1] = tested on: animals; conditions: in vivo, ip; cited from earlier work
[2] = tested on: 129S6/SvEvTac mice; experiment: 1-shock contextual fear conditioning (CFC) in SD experiments; format: in vivo; conditions: ketamine after SD
Experimental: The 1-shock CFC procedure was performed as previously published (A15). Briefly, mice were placed into context A and administered a 2-s shock (0.75 mA) 180 s later. Mice were removed from the context 15 s following the termination of shock (at 197 s). For context retrieval, mice were placed back into context A for 180 s. For alternate contexts, mice were placed into the contexts for 180 s.

[3] = tested on: 129S6/SvEvTac mice; experiment: Forced swim test (FST) in social defeat (SD) model; format: in vivo
Experimental: Experiment 1 (Pre-ketamine in social defeat (SD)): At 8 weeks of age, a single injection of saline (0.9% NaCl) or ketamine (K) (10, 30, or 90 mg kg^−1) (Ketaset III, Ketamine HCl, Fort Dodge Animal Health, Forth Dodge, Iowa) was administered. Ketamine was prepared in physiological saline and all injections were administered intraperitoneally (i.p.) in volumes of 0.1 cc per […]. […] At 9 weeks of age, 1 week following this injection, SD was started.
24 h after the last bout of SD, a single injection of saline or ketamine (30 mg kg^−1) was administered (mice were 11 weeks old). The forced swim test (PST) was administered 2 h following the injection.
Experiment 3 (Pre-fluoxetine in SD): At 6 weeks of age, fluoxetine hydrochloride (Fix) (BioTrend Chemicals AG, B6197) was administered in the drinking water (18 mg kg^−1/day) for 3 weeks before the start of SD. Starting at 9 weeks of age, SD was then administered for 2 weeks without vehicle or Flx in the drinking water.
Adult aggressor CD-1 male mice were single-housed in Macrolon® polycarbonate resin cages (15.25 in×7.8 in×9.5 in) (Animal Care Systems, Inc., Centennial, Colo.). Male 129S6/SvEvTac mice (9 weeks of age) were subsequently placed into the resident. CD-1 mouse's cage. Three antagonistic encounters were allowed between the CD-1 mouse and the intruder. Each of these encounters typically lasted less than 5 min. Following the encounters, mice were separated by a polished stainless steel cage divider (Animal Care Systems, Inc., Centennial, Colo., P/N C79171), which allowed for olfactory and auditory communication, but limited visual or tactile contact. The partition was removed daily for 2 weeks and 3 antagonistic encounters were allowed between the mice each day. This procedure consistently yielded a submissive phenotype in the experimental intruder mice. Control (Ctrl) mice were group housed 4 to 5 per cage in Macrolon® polycarbonate resin cages without dividers.
The FST was administered as previously described (A11). Briefly, mice were placed into clear plastic buckets 20 cm in diameter and 23 cm deep filled ⅔ of the way with 22° C. water. Mice were videotaped, from the side for 6 min and were exposed to the swim test on 2 consecutive days. For the SI) experiments, scoring was performed using an automated Viewpoint Videotrack software package (http://www.viewpoint.fr/en/a/anxiety-and-depression). For the CORT experiments, automated scoring was done using the automated X'PERT EST software suite (Bioseb, Vitrolles, France). The dependent variable was immobility.

[4] = tested on: 129S6/SvEvTac mice; experiment: FST after reinstatement; format: in vivo
Experimental: The FST was administered as previously described (Richardson-Jones et al., 2010; Brachman et al., 2016).

[5] = Body weight loss before NSF in SD experiments; format: in vivo; conditions: SD mice; ketamine after SD; vs saline
Experimental: (§1) Testing was performed as previously described (A13). Briefly, the testing apparatus consisted of a plastic box (50×50×20 cm). The floor was covered with approximately 2 cm of wooden bedding and the arena was brightly lit (1100-1200 lux). For 129S6/SvEv experiments, mice were food restricted for 12 h. For the C57BL/6N experiments, mice were food restricted for 24 h. All food was removed from the home cage. At the time of testing, a single pellet of food (regular chow) was placed on a white paper platform positioned in the center of the box. Each animal was placed in a corner of the box, and a stopwatch was immediately started. The latency of the mice to begin eating was recorded. Immediately after the latency was recorded, the food pellet was removed from the arena. The mice were then placed into a cage and the amount of food consumed in 5 min was measured (home cage consumption), followed by an assessment of post-restriction weight. We used the Kaplan-Meier survival analysis due to the lack of normal distribution of data. The Mantel-Cox log-rank test was used to evaluate differences between the experimental groups.

[6] = tested on: 129S6/SvEvTac mice; experiment: Novelty suppressed feeding (NSF) in SD experiments; format: in vivo
Experimental: as §1

[7] = tested on: C57BL/6NTac mice; experiment: FST in chronic corticosterone (CORT) model; format: in vivo
[8] = tested on: C57BL/6NTac mice; experiment: NSF in CORT model; format: in vivo; conditions: ketamine 10 and 90 mg kg^−1 before CORT
Experimental: Experiment 5 (Pre-ketamine and pre-fluoxetine corticosterone (CORT)): C57BL16NTac mice were injected with ketamine (10, 30, 90 mg kg^−1, i.p.) 1 week before the start of CORT, or administered fluoxetine (18 mg kg^−1 per day) in the drinking water for 3 weeks before the start of CORT. Ketamine was purchased from Merial (100 mg/ml stock solution). Fluoxetine hydrochloride (160 μg/mL, equivalent to 18 mg kg^−1 per day in the drinking water) was purchased from Anawa Trading (Zurich, Switzerland) and dissolved in 0.45% hydroxypropyl-β-cyclodextrin (β-CD) (Sigma-Aldrich, Saint-Quentin Fallavier, France) solution. Following ketamine or fluoxetine treatment, CORT was administered for 3 weeks in the drinking water. CORT (4-pregnen-11b-DIOL-3 20-DIONE 21-hemisuccinate) (35 μg/ml) from. Sigma Aldrich (Saint-Quentin Fallavier, France) was dissolved in vehicle (0.45% β-CD). Control animals received vehicle (0.45% β-CD) throughout the duration of the experiment. […]
Testing was performed as previously described (A13). […] The latency of the mice to begin eating was recorded. Immediately after the latency was recorded, the food pellet was removed from the arena. The mice were then placed into a cage and the amount of food consumed in 5 min was measured (home cage consumption), followed by an assessment of post-restriction weight. […]

Compound: CNC1(c2ccccc2Cl)CCCCC1=O (racemic) [ketamine, (RS)-2-(2-chlorophenyl)-2-(methylamino)cyclohexanone]
- reaction time to the hot plate test [1]: increased reaction time to the hot plate test
- CFC learning (freezing) [2]: did not impact CFC learning; also recorded: comparable levels of freezing
- immobility time, day 2 of FST ([3]; Ctrl (group housed) mice, ketamine 30 mg kg^−1 single i.p. injection, vs Ctrl-Sal): equal levels of immobility time; also recorded: did not differ from each other
- immobility time, day 2 of FST ([3]; Ctrl mice, ketamine 30 mg kg^−1 in the post-SD design): did not display different immobility time
- immobility time in FST ([3]; SD mice, ketamine 10 mg kg^−1 before SD, vs SD-Sal): did not differ in immobility time
- average immobility time for minutes 3 to 6 of FST ([3]; SD mice, ketamine 30 mg kg^−1 before SD, vs SD-Sal): less than the SD-Sal mice; also recorded: decreased immobility
- immobility time, day 2 of FST ([3]; SD mice, ketamine 30 mg kg^−1 single injection 1 week before 2 weeks of SD, vs SD-Sal): significantly decreased immobility time; also recorded: significantly less immobility time
- immobility time in FST ([3]; SD mice, ketamine 90 mg kg^−1 before SD, vs SD-Sal): did not differ in immobility time
- persistence of ketamine-induced resilience post-injection ([3]; SD model): at least 3 weeks
- dose found to be effective in the SD paradigm ([3]; doses tested 10, 30, 90 mg kg^−1): 30 mg/kg
- immobility time, minutes 3 to 6 averaged ([3]; ketamine given after SD): did not decrease immobility time
- time immobile in the FST ([4]; ketamine 1 week prior to 1-shock reinstatement): equal levels of immobility
- time immobile in the FST ([4]; ketamine 1 week prior to 3-shock reinstatement): equal levels of immobility in the FST
- percentage of weight loss [5]: lessened the percentage of weight loss; also recorded: attenuated this weight loss
- latency to eat in NSF ([6]; Ctrl mice, ketamine in post-SD design, vs saline): decreased the latency to eat; also recorded: significantly decreased the latency to approach the food pellet
- latency to eat in NSF ([6]; SD mice, ketamine after SD, vs SD-Sal): abolished; also recorded: did not differ from one another
- latency to feed in NSF ([6]; ketamine 30 mg kg^−1 before SD): no significant effect
- most effective dose in protecting against depressive-like behavior following chronic CORT ([7]; C57BL/6NTac mice, doses tested 10, 30, 90 mg kg^−1): 90 mg/kg
- persistence of ketamine-induced resilience post-injection ([7]; CORT model): ≥ 4 weeks
- immobility time on day 2 in the FST ([7]; ketamine 90 mg kg^−1 or fluoxetine 18 mg kg^−1/day, before 3 weeks of CORT): decreased immobility time; also recorded: significantly reduced immobility
- latency to feed in NSF [8]: prevented the chronic CORT-induced increase in latency to feed; also recorded: decreased the latency to feed
